Data as given in patent US10806795B2, “Bispecific anti-hapten/anti-blood brain barrier receptor antibodies, complexes thereof and their use as blood brain barrier shuttles” (Hoffmann-La Roche Inc., priority 2014, dated 2020).
Entries after “also recorded” stand apart in the source; their conditions may differ. Starred links: 1 amine or outer side, 2 acyl side, 3 side chain; linkers in the order of their positions; H or OH if unused. Non-standard residues stand in square brackets, D forms with d. No end group written: not given here. Pqa = (4-oxo-6-piperazin-1-yl-4H-quinazolin-3-yl)-acetic acid in the backbone, O=C(Cn1cnc2ccc(N3CCN([*:1])CC3)cc2c1=O)[*:2]; NMeR = CN[C@@H](CCCNC(=N)N)C(=O)O

What was measured:
[1] = Serum stability of digoxigenylated polypeptide, free or antibody-complexed (Western Blot-related assay of serum); format: in vivo, mice (strain NMRI); details: 32.1 nmol, serum 0.08 h, 2 h, 4 h, 24 h, listed as non-complexed polypeptide
Procedure: Serum samples were stored at −80° C.
The determination of the amount of digoxigenylated peptide in the serum at the given time points was difficult compared to the detection of Dig-Cy5 as no direct means to detect the polypeptide in serum samples was available. Therefore, a Western Blot-related assay to detect digoxigenylated peptide in serum was established. In a first step, the serum samples were separated on reducing SDS-PAGE. Because sample preparation included exposure of the serum to high concentrations of SDS and reducing agents, complexed Dig-polypeptide conjugates can become released from the (completely denatured/unfolded) anti-digoxigenin antibody, whereas covalent conjugates remained bound. To mediate the release of the polypeptide from the non-covalent antibody complex and separate the individual components by SDS-PAGE, 2 μl of each serum sample was diluted in 18 μl 20 mM histidine/140 mM NaCl pH 6.0, mixed with 6.7 μl of 4×LDS sample buffer and 3 μl of 10× sample reducing agent (NuPAGE, Invitrogen) for 5 min at 95° C. As a control, 2 μl of serum of an untreated mouse of the same strain was used. […] Digoxigenylated polypeptides were subsequently detected on the membrane with an anti-digoxigenin antibody. […] Chemiluminescence was detected with the Lumilmager F1 (Roche) with an exposure time of 20 min.

NPY1R = biological target: T1, NPY1R (Homo sapiens, UniProt P25929); test: Effect on the Y2Receptor family: NPY1R
T1 sequence (P25929 1-384): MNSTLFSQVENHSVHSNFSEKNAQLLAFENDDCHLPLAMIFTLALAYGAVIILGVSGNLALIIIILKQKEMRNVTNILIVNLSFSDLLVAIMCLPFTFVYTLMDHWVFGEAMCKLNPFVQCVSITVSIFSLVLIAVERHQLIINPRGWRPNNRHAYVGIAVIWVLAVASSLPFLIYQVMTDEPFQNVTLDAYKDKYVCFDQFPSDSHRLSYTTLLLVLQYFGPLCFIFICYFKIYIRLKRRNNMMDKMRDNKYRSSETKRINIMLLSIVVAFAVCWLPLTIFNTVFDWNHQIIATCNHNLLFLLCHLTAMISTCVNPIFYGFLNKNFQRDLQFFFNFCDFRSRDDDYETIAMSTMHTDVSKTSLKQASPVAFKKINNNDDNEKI

NPY5R = biological target: T2, NPY5R (Homo sapiens, UniProt Q15761); test: Effect on the Y2Receptor family: NPY5R
T2 sequence (Q15761 1-445): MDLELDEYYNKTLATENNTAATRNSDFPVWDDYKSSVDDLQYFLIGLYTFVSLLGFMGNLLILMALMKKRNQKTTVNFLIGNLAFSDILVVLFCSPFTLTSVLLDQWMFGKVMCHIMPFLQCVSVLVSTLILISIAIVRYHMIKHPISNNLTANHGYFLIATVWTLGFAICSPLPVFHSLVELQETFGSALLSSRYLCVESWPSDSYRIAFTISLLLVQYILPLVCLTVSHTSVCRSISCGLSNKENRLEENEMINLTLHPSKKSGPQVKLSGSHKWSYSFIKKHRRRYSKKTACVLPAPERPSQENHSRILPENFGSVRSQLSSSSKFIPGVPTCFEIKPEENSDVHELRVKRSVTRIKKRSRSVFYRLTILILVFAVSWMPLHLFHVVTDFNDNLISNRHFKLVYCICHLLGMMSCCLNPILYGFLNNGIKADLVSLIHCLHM

NPY4R = NPY4R (Homo sapiens, UniProt P50391); test: Effect on the Y2Receptor family: NPY4R
NPY2R = biological target: T3, NPY2R (Homo sapiens, UniProt P49146); test: Effect on the Y2Receptor family: NPY2R
T3 sequence (P49146 1-381): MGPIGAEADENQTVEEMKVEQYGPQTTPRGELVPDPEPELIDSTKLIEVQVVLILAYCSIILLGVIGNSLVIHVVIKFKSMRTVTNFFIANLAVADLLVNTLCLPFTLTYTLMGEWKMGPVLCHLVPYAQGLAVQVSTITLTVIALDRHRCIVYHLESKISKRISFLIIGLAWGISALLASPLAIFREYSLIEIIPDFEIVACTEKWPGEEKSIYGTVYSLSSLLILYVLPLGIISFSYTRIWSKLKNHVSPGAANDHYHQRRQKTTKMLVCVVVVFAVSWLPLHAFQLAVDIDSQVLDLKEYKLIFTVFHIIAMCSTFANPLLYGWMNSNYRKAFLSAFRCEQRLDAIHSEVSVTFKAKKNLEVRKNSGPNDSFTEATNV

[2] = design: species or system mice; details: mouse, in vivo
Text: The control group was not pre-injected with the anti-biotin antibody.

[3] = biological target: anti-helicar motif amino acid sequence antibody; test: Binding [Kd] of PYY peptides by anti-helicar motif amino acid sequence antibody

Sequence of NPY4R (P50391 whole entry, species assumed): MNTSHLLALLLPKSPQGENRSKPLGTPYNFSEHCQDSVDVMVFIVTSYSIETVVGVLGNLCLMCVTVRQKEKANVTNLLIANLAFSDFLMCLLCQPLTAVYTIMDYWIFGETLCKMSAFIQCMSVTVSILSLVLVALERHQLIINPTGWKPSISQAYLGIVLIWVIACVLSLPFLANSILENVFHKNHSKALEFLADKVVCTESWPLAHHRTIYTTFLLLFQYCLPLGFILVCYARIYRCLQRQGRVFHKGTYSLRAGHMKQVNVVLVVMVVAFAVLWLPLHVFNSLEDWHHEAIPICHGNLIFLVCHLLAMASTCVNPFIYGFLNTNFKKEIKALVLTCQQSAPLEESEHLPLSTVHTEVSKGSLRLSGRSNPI

Row | Compound | presence/amount of the digoxigenin polypeptide in murine serum [1] | NPY1R (NPY1R) | NPY5R (NPY5R) | NPY4R (NPY4R) | NPY2R (NPY2R) | serum half-life and exposure levels [2] | Kd [3]
1 | CC[C@H](C)[C@H](NC(C)=O)C(=O)N[C@@H](CCCCNC(=O)CCOCCOCCOCCNC(=O)CO[C@H]1CC[C@@]2(C)[C@H](CC[C@@H]3[C@@H]2C[C@@H](O)[C@]2(C)[C@@H](C4=CC(=O)OC4)CC[C@]32O)C1)C(=O)N1CCN(c2ccc3ncn(CC(=O)N[C@@H](CCCNC(=N)N)C(=O)N[C@@H](Cc4c[nH]cn4)C(=O)N[C@@H](Cc4ccc(O)cc4)C(=O)N[C@@H](CC(C)C)C(=O)N[C@@H](CC(N)=O)C(=O)N[C@@H](Cc4c[nH]c5ccccc45)C(=O)N[C@H](C(=O)N[C@H](C(=O)N[C@@H](CCCNC(=N)N)C(=O)N[C@@H](CCC(N)=O)C(=O)N(C)[C@@H](CCCNC(=N)N)C(=O)N[C@@H](Cc4ccc(O)cc4)C(N)=O)[C@@H](C)O)C(C)C)c(=O)c3c2)CC1 [Ac-PYY(PEG3-Dig)] | barely any signal associable to the small polypeptide was detectable even at the earliest time point; also recorded: very short half-life in the serum of mice |  |  |  |  |  | 
2 | Ac-Ile-Lys-Pqa-Arg-His-Tyr-Leu-Asn-Trp-Val-Thr-Arg-Gln-(NMe)-Arg-Try-NH2 * 4 HOAc (Ac-IK[Pqa]RHYLNWVTRQ[NMeR]Y-NH2; also: 4 HOAc salt) |  | in- | in- | in- | 1.0 nM |  | 
3 | Biotin-O2Oc-Ser-O2Oc-DADOO-Cy5 [Biotin-Cy5] |  |  |  |  |  | eliminated with a low serum half-life and low exposure levels | 
4 | IKPEAPGEDASPEAHLANEVARLHYLNLVTRQRY-NH2 [PYY_helicar] |  |  | in- | in- | 6.38 nM |  | 0.012 µM
